Here are results for 9 compounds from ChEMBL document CHEMBL5465560, “Selectivity Literature for EUbOPEN Chemogenomic Library” (2024).

Molecules are shown by their SMILES.

In test [1] the target is Mitogen-activated protein kinase kinase kinase 11 (Homo sapiens) (UniProt Q16584). Briefly: Selectivity interaction (ProQinase) EUB0000171b MAP3K11.
Test [2] has as its target Myosin-IIIa (Homo sapiens) (UniProt Q8NEV4). To be noted: at 10 µM.
Test [3] concerns the target Dual specificity protein kinase CLK1 (Homo sapiens, UniProt P49759). Description: Selectivity interaction (KinomeScan (DiscoverX)) EUB0001079a CLK1. Particulars: at 1 µM.
For test [4], the target named is LIM domain kinase 2 (Homo sapiens) (UniProt P53671). Description: Selectivity interaction (KinomeScan (DiscoverX)) EUB0000695a LIMK2. To be noted: at 100 nM.
LIM domain kinase 2 (Homo sapiens), sequence (P53671 whole entry, looked up, the tested form may be a part): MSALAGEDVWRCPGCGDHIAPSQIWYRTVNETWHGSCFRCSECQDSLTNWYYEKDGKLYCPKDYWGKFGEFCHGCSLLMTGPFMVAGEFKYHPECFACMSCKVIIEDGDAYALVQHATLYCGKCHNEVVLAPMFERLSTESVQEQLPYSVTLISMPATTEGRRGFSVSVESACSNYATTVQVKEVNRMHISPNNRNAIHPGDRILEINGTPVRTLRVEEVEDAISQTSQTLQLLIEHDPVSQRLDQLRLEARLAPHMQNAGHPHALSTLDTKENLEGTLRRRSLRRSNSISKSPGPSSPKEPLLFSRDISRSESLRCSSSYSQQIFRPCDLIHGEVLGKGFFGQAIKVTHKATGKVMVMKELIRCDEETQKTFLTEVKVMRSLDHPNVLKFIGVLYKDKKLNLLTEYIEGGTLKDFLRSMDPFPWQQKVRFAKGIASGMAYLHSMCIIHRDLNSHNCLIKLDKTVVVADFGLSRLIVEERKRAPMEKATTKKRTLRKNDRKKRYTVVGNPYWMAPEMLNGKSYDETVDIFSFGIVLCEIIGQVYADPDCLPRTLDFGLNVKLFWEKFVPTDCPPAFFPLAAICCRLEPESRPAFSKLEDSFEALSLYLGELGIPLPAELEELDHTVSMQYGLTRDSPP
For test [5], the target named is T1, Calcium/calmodulin-dependent protein kinase type IV (Homo sapiens) (UniProt Q16566).
T1 sequence (whole entry): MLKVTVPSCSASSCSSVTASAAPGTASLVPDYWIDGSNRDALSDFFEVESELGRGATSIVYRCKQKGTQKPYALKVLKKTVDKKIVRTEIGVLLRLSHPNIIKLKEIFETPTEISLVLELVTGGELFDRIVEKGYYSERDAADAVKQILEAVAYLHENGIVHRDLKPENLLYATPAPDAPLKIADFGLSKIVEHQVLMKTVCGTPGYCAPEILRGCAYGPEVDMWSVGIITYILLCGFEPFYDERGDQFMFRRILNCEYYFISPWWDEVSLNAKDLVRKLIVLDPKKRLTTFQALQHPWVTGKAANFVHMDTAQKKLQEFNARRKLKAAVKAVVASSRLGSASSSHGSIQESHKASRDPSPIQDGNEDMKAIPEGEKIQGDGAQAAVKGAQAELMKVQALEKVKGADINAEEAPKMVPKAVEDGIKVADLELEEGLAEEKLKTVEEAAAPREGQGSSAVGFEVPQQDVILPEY
Briefly: Selectivity interaction (Kinase screening (Upstate/Millipore)) EUB0000604a CAMK4.

Test [6] concerns the target T2, Dual specificity mitogen-activated protein kinase kinase 7 (Homo sapiens) (UniProt O14733).
T2 sequence (whole entry): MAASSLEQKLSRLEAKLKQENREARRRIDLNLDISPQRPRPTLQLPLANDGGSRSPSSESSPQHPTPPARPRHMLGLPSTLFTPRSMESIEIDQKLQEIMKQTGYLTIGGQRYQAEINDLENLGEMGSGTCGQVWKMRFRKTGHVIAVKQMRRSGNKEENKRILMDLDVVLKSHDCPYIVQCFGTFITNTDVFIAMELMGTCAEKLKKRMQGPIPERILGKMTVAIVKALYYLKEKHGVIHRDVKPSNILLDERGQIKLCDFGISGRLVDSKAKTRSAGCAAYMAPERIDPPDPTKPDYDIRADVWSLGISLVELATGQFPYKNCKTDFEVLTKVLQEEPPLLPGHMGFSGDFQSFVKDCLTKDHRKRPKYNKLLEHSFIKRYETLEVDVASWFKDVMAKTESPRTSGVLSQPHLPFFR
Description: Selectivity interaction (KinomeScan (DiscoverX)) EUB0000666a MAP2K7. To be noted: at 10 µM.

Test [7] has as its target T3, Ephrin type-A receptor 1 (Homo sapiens) (UniProt P21709).
T3 sequence (whole entry): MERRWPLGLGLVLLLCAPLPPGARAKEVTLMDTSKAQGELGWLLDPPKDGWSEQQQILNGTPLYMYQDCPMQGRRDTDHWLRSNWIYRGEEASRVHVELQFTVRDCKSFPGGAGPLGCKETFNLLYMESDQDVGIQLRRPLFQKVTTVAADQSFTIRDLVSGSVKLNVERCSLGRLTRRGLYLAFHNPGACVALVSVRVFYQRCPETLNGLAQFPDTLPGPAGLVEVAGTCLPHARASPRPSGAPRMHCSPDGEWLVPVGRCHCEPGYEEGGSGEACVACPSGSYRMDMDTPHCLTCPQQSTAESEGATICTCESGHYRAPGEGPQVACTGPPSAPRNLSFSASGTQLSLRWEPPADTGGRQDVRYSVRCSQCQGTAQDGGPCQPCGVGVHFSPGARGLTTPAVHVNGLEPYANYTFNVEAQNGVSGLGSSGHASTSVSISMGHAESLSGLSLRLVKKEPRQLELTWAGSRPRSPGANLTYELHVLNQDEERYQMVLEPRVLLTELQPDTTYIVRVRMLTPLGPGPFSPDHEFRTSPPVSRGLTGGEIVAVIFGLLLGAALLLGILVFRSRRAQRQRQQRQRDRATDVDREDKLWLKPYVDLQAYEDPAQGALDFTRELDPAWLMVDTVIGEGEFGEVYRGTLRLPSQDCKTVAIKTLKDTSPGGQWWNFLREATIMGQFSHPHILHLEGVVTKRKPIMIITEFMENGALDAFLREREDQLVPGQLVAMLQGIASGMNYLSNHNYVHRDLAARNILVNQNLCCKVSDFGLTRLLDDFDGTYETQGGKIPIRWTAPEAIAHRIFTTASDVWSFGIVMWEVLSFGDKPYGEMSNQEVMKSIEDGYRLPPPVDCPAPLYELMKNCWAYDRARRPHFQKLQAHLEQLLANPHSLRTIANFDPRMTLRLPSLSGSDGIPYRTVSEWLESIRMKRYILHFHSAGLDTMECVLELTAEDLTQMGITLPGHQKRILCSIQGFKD
Description: Selectivity interaction (SelectScreen profiling (Invitrogen)) EUB0000607a EPHA1. To be noted: at 2 µM.

Test [8] addresses T4, Testis-specific serine/threonine-protein kinase 2 (Homo sapiens) (UniProt Q96PF2).
T4 sequence (whole entry): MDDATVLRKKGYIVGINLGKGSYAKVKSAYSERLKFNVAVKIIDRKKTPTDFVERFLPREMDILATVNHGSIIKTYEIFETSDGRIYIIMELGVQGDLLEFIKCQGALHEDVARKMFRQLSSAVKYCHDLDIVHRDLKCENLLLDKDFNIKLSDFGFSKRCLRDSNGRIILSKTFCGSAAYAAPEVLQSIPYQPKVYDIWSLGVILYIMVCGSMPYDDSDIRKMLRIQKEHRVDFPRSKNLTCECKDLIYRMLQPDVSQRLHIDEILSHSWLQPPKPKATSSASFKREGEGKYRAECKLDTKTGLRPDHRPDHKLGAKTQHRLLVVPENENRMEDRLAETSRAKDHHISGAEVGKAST
Description: Selectivity interaction (Kinase panel (Invitrogen)) EUB0000639a TSSK2. To be noted: at 200 nM.

The target in test [9] is Glycogen synthase kinase-3 alpha (Homo sapiens, UniProt P49840). Description: Selectivity interaction (KinomeScan (DiscoverX)) EUB0000229b GSK3A. Particulars: at 10 µM.
Glycogen synthase kinase-3 alpha, sequence (P49840 2-483 limits assumed): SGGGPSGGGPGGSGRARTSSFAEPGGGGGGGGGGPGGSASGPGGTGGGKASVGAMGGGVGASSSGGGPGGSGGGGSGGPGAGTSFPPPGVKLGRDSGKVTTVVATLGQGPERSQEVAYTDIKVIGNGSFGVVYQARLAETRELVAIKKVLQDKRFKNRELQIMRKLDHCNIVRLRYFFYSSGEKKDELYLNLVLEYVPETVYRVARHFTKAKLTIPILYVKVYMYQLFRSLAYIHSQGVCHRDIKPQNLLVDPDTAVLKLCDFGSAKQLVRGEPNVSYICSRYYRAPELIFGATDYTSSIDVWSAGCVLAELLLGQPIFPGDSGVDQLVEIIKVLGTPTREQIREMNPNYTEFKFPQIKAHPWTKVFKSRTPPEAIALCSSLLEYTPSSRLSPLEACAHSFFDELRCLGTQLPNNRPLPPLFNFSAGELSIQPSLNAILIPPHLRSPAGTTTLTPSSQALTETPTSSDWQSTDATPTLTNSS

Mitogen-activated protein kinase kinase kinase 11 (Homo sapiens), sequence (Q16584 whole entry, looked up): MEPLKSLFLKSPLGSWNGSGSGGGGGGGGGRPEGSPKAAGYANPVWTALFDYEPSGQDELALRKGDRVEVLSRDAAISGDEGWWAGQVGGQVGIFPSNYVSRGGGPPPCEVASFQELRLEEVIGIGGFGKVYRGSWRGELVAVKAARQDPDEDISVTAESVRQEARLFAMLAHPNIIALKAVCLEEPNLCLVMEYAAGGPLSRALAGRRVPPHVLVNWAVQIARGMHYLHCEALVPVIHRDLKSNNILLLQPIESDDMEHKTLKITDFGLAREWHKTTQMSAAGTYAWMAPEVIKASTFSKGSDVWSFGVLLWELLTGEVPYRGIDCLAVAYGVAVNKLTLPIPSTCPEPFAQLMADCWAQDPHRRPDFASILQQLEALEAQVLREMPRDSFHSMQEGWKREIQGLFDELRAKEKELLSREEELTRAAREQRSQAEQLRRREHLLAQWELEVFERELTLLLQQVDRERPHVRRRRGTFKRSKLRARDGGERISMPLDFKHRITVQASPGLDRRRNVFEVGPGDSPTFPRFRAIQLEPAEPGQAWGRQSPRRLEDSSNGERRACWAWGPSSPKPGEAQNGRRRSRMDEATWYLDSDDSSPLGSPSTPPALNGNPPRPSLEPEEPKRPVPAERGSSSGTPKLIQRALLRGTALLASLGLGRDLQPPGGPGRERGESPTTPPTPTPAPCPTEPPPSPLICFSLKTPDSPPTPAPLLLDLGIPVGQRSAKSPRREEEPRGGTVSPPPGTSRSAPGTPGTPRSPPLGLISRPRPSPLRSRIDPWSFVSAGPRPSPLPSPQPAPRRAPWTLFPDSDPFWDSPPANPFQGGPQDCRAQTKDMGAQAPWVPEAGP
Dual specificity protein kinase CLK1, sequence (P49759 whole entry, looked up, the tested form may be a part): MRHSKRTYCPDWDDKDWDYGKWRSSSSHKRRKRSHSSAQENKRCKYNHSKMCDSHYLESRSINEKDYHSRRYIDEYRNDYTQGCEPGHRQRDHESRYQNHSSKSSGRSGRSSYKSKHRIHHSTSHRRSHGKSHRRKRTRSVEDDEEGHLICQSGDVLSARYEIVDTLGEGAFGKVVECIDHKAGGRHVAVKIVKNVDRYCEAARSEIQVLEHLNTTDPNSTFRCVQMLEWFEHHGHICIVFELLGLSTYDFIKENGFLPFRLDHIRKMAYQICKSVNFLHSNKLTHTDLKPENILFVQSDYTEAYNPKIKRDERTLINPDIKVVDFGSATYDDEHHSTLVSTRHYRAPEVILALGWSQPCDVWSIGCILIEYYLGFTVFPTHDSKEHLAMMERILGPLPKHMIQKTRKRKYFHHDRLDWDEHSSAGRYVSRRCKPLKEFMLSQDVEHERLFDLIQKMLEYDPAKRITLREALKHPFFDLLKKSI
Myosin-IIIa (Homo sapiens), sequence (Q8NEV4 whole entry): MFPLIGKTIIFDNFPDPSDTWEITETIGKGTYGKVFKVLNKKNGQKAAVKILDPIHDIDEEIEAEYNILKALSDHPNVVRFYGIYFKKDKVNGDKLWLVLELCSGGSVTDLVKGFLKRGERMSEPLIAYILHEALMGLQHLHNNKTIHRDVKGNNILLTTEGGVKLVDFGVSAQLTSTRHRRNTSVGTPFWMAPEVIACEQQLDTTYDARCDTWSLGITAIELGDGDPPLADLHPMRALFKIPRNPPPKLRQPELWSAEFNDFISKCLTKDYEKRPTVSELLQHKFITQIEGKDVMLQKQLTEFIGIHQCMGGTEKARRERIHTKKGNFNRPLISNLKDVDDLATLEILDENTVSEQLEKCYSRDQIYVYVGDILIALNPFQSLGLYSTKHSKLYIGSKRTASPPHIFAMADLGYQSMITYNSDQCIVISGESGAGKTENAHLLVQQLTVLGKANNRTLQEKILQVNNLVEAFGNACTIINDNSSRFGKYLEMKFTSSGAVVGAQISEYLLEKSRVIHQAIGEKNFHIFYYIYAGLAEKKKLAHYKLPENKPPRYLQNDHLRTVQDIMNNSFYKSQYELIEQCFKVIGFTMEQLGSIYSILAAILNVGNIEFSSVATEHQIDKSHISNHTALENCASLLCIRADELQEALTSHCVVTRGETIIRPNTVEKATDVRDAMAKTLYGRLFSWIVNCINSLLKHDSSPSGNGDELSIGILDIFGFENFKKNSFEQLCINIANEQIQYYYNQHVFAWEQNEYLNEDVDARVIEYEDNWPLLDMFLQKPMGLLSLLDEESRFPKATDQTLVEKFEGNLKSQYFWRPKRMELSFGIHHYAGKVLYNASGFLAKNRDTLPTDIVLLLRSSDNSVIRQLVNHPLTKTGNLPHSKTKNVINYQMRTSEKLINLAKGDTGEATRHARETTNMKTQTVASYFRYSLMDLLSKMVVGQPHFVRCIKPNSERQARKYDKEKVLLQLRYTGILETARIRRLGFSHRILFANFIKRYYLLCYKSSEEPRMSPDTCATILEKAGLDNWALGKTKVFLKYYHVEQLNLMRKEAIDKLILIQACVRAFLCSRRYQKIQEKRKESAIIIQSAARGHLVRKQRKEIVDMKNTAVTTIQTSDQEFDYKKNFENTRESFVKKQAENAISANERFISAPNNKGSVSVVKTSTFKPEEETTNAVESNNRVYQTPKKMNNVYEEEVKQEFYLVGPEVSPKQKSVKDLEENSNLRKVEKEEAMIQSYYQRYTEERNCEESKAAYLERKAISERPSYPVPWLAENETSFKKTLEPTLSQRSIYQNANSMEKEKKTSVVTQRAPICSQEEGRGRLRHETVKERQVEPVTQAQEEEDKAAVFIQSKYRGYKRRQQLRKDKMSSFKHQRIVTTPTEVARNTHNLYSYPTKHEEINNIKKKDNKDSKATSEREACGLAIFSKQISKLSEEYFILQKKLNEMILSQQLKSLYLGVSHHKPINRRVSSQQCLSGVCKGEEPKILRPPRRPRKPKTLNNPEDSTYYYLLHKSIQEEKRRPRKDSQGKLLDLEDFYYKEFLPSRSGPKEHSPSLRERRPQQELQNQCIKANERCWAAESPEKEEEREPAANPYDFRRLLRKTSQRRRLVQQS

In the case of `C=CC(=O)Nc1cccc(C(=O)Nc2ccc(Nc3cc(-c4[nH]c(SC)nc4C)ccn3)cc2)c1`, the % of control in test [1] (at 1 µM) came out at 28%; in [1] (at 5 µM) it was 13%.

On to `CCN(CC)CCCCNc1ncc2cc(-c3cc(OC)cc(OC)c3)c(NC(=O)NC(C)(C)C)nc2n1`, for which the % of control in [2] is 100%.

`Nc1cnc(N2CCc3cc(S(=O)(=O)Nc4c(F)cc(Cl)cc4F)cc(N4CCCC4=O)c32)nc1` [TP-020n] came in with a % of control in test [3] of 85%.

In test [4], `Cc1cc(F)c(C(=O)Nc2cccc(-c3nncn3C(C)C)n2)cc1-n1cnc(C2CC2)c1` showed a % of control of 89%.

In the case of `Cc1cnc(Nc2ccc(F)cc2Cl)nc1-c1c[nH]c(C(=O)N[C@H](CO)c2cccc(Cl)c2)c1`, the % of inhibition in [5] is 0%.

As for `O=C(NOC[C@H](O)CO)c1ccc(F)c(F)c1Nc1ccc(I)cc1F`, in test [6], the % of control is 100%.

The compound `CNC(=O)Nc1ccc(-c2nc(N3CC4CCC(C3)O4)c3cnn(C4CCC5(CC4)OCCO5)c3n2)cc1` showed a % of inhibition in test [7] of 3%.

`CC[C@@H]1[C@H](F)C(=O)N[C@@H]1COc1nccc2cc(C(N)=O)c(OC)cc12` [ZIMLOVISERTIB] came in with a % of inhibition in test [8] of 8.34%.

Take `COc1cc(N(C)c2ccnc3ccc(C(F)(F)F)cc23)cc(OC)c1OC`: the % binding in test [9] amounted to 93%.
